Structures are written as SMILES. Several values for one entry are separate records, joined by “and”; a condition that tells them apart may be missing. Equal values may be shown once. Bounds are passed on as bounds.

This passage reports viability, T/C and IC50 results from PubChem BioAssay AID1963842 (Molecular Pharmacology Branch, DTP, NCI, 2024).

The test system of this test is 677734-321-R-J1-PDC complex spheroid viability. Nature of the test: Anticancer human tumor 677734-321-R-J1-PDC patient-derived soft tissue sarcoma cell line growth inhibition [POLQ]. Particulars: for viability, T/C: stronger effect = lower value. The protocol:
Multicellular complex tumor spheroid response to Polymerase (POL) inhibitors (novobiocin, ART-558, RP6685) in combination with a variety of drugs and investigational agents in selected tumor cell lines
The POL inhibitors (novobiocin, ART-558, and RP6685) were evaluated both individually and in combination with standard of care and investigational anticancer small molecules within a complex spheroid model of solid tumors. . Complex spheroids include a stromal component modeled by human endothelial cells (HUVEC) and fibroblasts modeled by human mesenchymal stem cells (MSCs). The concentration ranges selected for each drug and investigational agent were based upon clinically achievable concentrations if the clinical Cmax of the agent was known.
Compounds. The drugs and investigational agents: novobiocin (NSC847541), ART-558 (NSC835418), RP-6685 (NSC848927), peposertib (NSC802822), ceralasertib (NSC780249), elimusertib (NSC800525), camonsertib (NSC841442), AZD-1390 (NSC803789), olaparib (NSC753686), talazoparib (NSC767125), rucaparib (NSC756644), sotorasib (NSC818433), MRTX-1133 (NSC836407), SN-38 (NSC673596), topotecan (NSC609699), epotoside (NSC141540), doxorubicin (NSC123127), gemcitabine (NSC613327), 5-fluorouracil (NSC19893), paclitaxel (NSC125973), vemurafenib (NSC761431), MSA-2 (NSC828583), SN-011 (NSC837082), adavosertib (NSC754352), prexasertib (NSC758257), carboplatin (NSC241240) and oxaliplatin (NSC266046), were obtained from the National Cancer Institute (NCI) Developmental Therapeutics Program Chemical Repository (21). The FDA-approved anticancer drug set is available from the Developmental Therapeutics Program at https://dtp.cancer.gov/organization/dscb/obtaining/. […] The stock solutions were prepared in dimethyl sulfoxide (DMSO, Sigma-Aldrich, St. Louis, MO, cat. D2650), except for the platinum compounds which were prepared in saline (Quality Biological, Gaithersburg, MD, cat. 114-055-101), at 800-fold the tested concentration and stored at -70 degrees C prior to their use. All drugs and investigational agents were tested over a range starting from a high concentration at or near the clinical Cmax and decreasing in half-log increments. If the clinical Cmax for an agent had not been determined, the highest concentration tested was 10 microM, except for SN-38, which was tested at a high concentration of 1 microM.
Cell Culture. All cells were maintained in an incubator at 37 degrees C and 5% CO2 with 95% humidity. The PDC lines were cultured according to standard operating procedures established by the NCI PDMR (https://pdmr.cancer.gov). Table 3 of the manuscript, lists the cell lines along with the number of the three cell types plated to form the mct-spheroids and media for tumor cell growth. After thawing, all PDC lines, except 997537-175-T-J1-PDC and 415267-285-R-J2-PDC, were cultured in Matrigel-coated flasks prepared with a working solution of 1X Ham's F-12 nutrient mix, without supplementation (Thermo Fisher Scientific, cat. 11765054), 100 U/mL penicillin-streptomycin (Thermo Fisher Scientific, cat. 15140122), and 2.5% Matrigel (Corning Inc., Corning, NY, cat. 354248) for the first three passages. The two PDC lines 997537-175-T-J1-PDC and 415267-285-R-J2-PDC were cultured on uncoated flasks. The 857933-349-R-J2-PDC line was cultured in 6C/Colon 1B media containing advanced DMEM/F-12 (Thermo Fisher Scientific, cat. 12634028), 10 mM HEPES (Thermo Fisher Scientific, cat. 15630080), 1X GlutaMAX supplement (Thermo Fisher Scientific, cat. 35050061), 0.1 mg/mL primocin (InvivoGen, San Diego, CA, cat. ant-pm-2), 10% defined fetal bovine serum, heat inactivated (HyClone Laboratories Inc., Logan, UT, cat. SH30070.03HI), 50% L-WRN conditioned media (ATCC, cat. CRL-3276), 1.25 mM N-Acetyl-L-cysteine (Sigma-Aldrich, cat. A9165), 10 mM nicotinamide (Sigma-Aldrich, cat. N0636), 1X B-27 supplement (Thermo Fisher Scientific, cat. 17504044), 1X N-2 supplement (Thermo Fisher Scientific, cat. […]

The mark [1] stands for this setting: compound alone, run of 11/27/2023.
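Note: spheroids exposed to compounds for one week.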

Take `COC1C(OC(N)=O)C(O)C(Oc2ccc3c(O)c(NC(=O)c4ccc(O)c(CC=C(C)C)c4)c(=O)oc3c2C)OC1(C)C` (centres undefined): the viability, T/C (compound 0.0316 µM) was 103% [middle of 13 runs]; the viability, T/C (compound 0.1 µM) is 104% [middle of 13 runs]; the viability, T/C (compound 0.316 µM) is 110% [middle of 13 runs]; the viability, T/C (compound 1 µM) was 104% [middle of 13 runs]; the viability, T/C (compound 3.16 µM) was 106% [middle of 13 runs]; the viability, T/C (compound 10 µM) is 106% [middle of 13 runs]. The concentration for half-maximal inhibition (IC50) under setting [1] was more than 10 µM.

With `COc1cc(C2c3cc4c(cc3C(OC3OC5COC(C)OC5C(O)C3O)C3COC(=O)C23)OCO4)cc(OC)c1O` (centres undefined), the viability, T/C by setting is: (compound 0.0316 µM) 104% and 100% and 109%; (compound 0.1 µM) 89.1% and 82.7% and 89.3%; (compound 0.316 µM) 62.1% and 53.5% and 58%; (compound 1 µM) 57.5% and 29.2% and 48.4%; (compound 3.16 µM) 31.5% and 19.5% and 25.9%; (compound 10 µM) 8.04% and 9.9% and 10.2%. Besides, the 50% inhibitory concentration (IC50) (curve of compound) is 0.97 µM and 0.385 µM and 0.706 µM.

As to `COc1ccc([C@@H](O)c2cc(-c3ncnc4cc(N5CCOCC5)ccc34)c(F)cc2Cl)nn1`, the viability, T/C runs as follows: (compound 0.0316 µM) 107% and 98.4% and 105%; (compound 0.1 µM) 105% and 99.2% and 102%; (compound 0.316 µM) 100% and 104% (2×); (compound 1 µM) 96.4% and 81.6% and 94.7%; (compound 3.16 µM) 73.8% and 64.6% and 87.4%; (compound 10 µM) 49.8% and 45.3% and 51%. The IC50 (curve of compound) is 9.83 µM and 7.58 µM and > 10 µM.

Regarding `COc1cccc(OCCCN)c1-c1cc(Nc2cnc(C#N)cn2)n[nH]1`, the viability, T/C was 96.4% and 60.4% and 103% (compound 0.00316 µM); 35.5% and 11.5% and 11.2% (compound 0.01 µM); 13.8% and 5.42% and 7.19% (compound 0.0316 µM); 8.96% and 5.9% and 8.69% (compound 0.1 µM); 11% and 6.62% and 7.27% (compound 0.316 µM); 10.3% and 5.14% and 6.13% (compound 1 µM). Also, the IC50 (curve of compound) is 0.00761 µM and 0.00404 µM and 0.00615 µM.

For the molecule `COc1cccc2c1C(=O)c1c(O)c3c(c(O)c1C2=O)CC(O)(C(=O)CO)CC3OC1CC(N)C(O)C(C)O1` (centres undefined), the viability, T/C was 86.2% and 48.1% and 72.7% (compound 0.0316 µM); 48.5% and 29% and 48.7% (compound 0.1 µM); 8% and 4.1% and 6.65% (compound 0.316 µM); 0.91% and 1.65% (compound 1 µM); 2.59% and 1.37% and 2.03% (compound 3.16 µM); 3.4% and 0.66% and 2.59% (compound 10 µM). Further, under “curve of compound”, the half-maximal inhibitory concentration (IC50) is 0.0956 µM and < 0.0316 µM and 0.0938 µM.

As to `Cc1cccc(N(C)C(=O)C2C(O)CCN2c2nc(C)cc(C(F)(F)F)c2C#N)c1` (centres undefined), the viability, T/C (compound 0.0316 µM) is 101% [middle of 13 runs]; the viability, T/C (compound 0.1 µM) was 103% [middle of 13 runs]; the viability, T/C (compound 0.316 µM) was 107% [middle of 13 runs]; the viability, T/C (compound 1 µM) was 99.2% [middle of 13 runs]; the viability, T/C (compound 3.16 µM) was 102% [middle of 13 runs]. Besides, the IC50 reads like this: under setting [1], more than 10 µM; (compound alone, run of 12/05/2023) more than 10 µM.

As to `Cn1ncnc1[C@H]1c2n[nH]c(=O)c3cc(F)cc(c23)N[C@@H]1c1ccc(F)cc1`, the viability, T/C (compound 0.000316 µM) is 101% and 87.2% and 106%; the viability, T/C (compound 0.001 µM) was 104% and 93.2% and 95.4%; the viability, T/C (compound 0.00316 µM) is 97.4% and 107% and 117%; the viability, T/C (compound 0.01 µM) is 105% and 94.7% and 104%; the viability, T/C (compound 0.0316 µM) is 98.8% and 94.5% and 106%; the viability, T/C (compound 0.1 µM) was 93% and 75.8% and 93.5%. In addition, the IC50 (curve of compound) was more than 0.1 µM.

Turning to `Nc1ccn(C2OC(CO)C(O)C2(F)F)c(=O)n1` (centres undefined), the viability, T/C by setting is: (compound 0.0316 µM) 34.7% and 15.9% and 21.9%; (compound 0.1 µM) 14.8% and 10.8% and 14.6%; (compound 0.316 µM) 16.7% and 11.1% and 12.8%; (compound 1 µM) 14.4% and 10% and 14.7%; (compound 3.16 µM) 14.3% and 7.7% and 10.6%; (compound 10 µM) 12.5% and 6.81% and 8.93%. The IC50 (curve of compound) was less than 0.0316 µM.

Take `O=C(c1cc(Cc2n[nH]c(=O)c3ccccc23)ccc1F)N1CCN(C(=O)C2CC2)CC1`: the viability, T/C is, setting by setting: (compound 0.0316 µM) 102% and 15.6% and 95.7%; (compound 0.1 µM) 100% and 20.2% and 94.9%; (compound 0.316 µM) 104% and 16.8% and 106%; (compound 1 µM) 105% and 20.7% and 100%; (compound 3.16 µM) 97.5% and 14.8% and 101%; (compound 10 µM) 77.8% and 12.2% and 58.9%.

Turning to `O=c1[nH]cc(F)c(=O)[nH]1`, the viability, T/C (compound 0.0316 µM) was 116% and 111% and 113%; the viability, T/C (compound 0.1 µM) is 101% and 86.4% and 96.7%; the viability, T/C (compound 0.316 µM) is 108% and 104% (2×); the viability, T/C (compound 1 µM) is 85.4% and 84.6% and 91.5%; the viability, T/C (compound 3.16 µM) was 54.7% and 62.5% and 51.4%; the viability, T/C (compound 10 µM) is 44.1% and 59% and 42.7%. Further, the IC50 (curve of compound) was 5.22 µM and > 10 µM and 3.84 µM.

The viability, T/C is the ratio of treated to control. For orientation: IC50 means the concentration that gives 50% inhibition.
